Test results reported in ChEMBL document CHEMBL3875218, “Bifunctional conjugates with potent inhibitory activity towards cyclooxygenase and histone deacetylase” (Bioorg Med Chem, 2017).

Columns and labels:
Histone deacetylase 1 = Histone deacetylase 1 (Homo sapiens, UniProt Q13547); experiment: Inhibition of HDAC1 (unknown origin) after 24 hrs by SAMDI mass spectroscopic analysis
Histone deacetylase 2 [1] = target: T1, Histone deacetylase 2 (Homo sapiens, UniProt Q92769); experiment: Inhibition of HDAC2 (unknown origin) after 24 hrs by SAMDI mass spectroscopic analysis
Histone deacetylase 3 = Histone deacetylase 3 (Homo sapiens, UniProt O15379); experiment: Inhibition of HDAC3 (unknown origin) after 5 hrs by SAMDI mass spectroscopic analysis
[2] = target: T2, Protein deacetylase HDAC6 (Homo sapiens, UniProt Q9UBN7); experiment: Inhibition of HDAC6 (unknown origin) after 20 hrs by SAMDI mass spectroscopic analysis
T2 sequence (Q9UBN7 whole entry): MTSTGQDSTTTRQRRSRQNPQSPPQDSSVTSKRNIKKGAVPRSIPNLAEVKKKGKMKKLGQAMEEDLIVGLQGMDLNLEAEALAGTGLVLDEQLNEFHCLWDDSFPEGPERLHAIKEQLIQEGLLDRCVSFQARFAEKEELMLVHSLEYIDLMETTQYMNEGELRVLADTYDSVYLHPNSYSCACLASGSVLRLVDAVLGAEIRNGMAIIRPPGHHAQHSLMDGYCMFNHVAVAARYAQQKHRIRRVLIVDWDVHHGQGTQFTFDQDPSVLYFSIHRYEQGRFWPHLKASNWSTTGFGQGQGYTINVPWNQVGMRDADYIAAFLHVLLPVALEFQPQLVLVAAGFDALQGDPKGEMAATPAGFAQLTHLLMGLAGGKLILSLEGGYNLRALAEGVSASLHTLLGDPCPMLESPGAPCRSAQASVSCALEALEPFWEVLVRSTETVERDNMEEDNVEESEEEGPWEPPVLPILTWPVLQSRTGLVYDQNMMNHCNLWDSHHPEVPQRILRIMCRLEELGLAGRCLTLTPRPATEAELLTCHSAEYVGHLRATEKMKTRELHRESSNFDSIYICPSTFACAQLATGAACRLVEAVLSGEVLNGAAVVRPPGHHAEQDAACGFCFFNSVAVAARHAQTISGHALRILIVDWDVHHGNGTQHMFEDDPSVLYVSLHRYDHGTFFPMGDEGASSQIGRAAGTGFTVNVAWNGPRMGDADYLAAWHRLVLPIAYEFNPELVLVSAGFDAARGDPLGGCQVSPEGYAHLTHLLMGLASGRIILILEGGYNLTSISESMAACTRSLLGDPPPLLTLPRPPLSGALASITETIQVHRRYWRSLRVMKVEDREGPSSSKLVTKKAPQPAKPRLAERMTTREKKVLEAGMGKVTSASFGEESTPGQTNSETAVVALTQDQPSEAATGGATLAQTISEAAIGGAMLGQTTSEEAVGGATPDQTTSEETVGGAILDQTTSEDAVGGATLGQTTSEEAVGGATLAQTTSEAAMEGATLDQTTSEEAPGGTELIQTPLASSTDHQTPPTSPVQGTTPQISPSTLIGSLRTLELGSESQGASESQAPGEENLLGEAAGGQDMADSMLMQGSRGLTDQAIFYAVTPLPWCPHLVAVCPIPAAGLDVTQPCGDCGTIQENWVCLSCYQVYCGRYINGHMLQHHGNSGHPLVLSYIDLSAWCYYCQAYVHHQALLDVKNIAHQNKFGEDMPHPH

Histone deacetylase 8 = target: T3, Histone deacetylase 8 (Homo sapiens, UniProt Q9BY41); experiment: Inhibition of HDAC8 (unknown origin) after 2.5 hrs by SAMDI mass spectroscopic analysis
T3 sequence (Q9BY41 whole entry): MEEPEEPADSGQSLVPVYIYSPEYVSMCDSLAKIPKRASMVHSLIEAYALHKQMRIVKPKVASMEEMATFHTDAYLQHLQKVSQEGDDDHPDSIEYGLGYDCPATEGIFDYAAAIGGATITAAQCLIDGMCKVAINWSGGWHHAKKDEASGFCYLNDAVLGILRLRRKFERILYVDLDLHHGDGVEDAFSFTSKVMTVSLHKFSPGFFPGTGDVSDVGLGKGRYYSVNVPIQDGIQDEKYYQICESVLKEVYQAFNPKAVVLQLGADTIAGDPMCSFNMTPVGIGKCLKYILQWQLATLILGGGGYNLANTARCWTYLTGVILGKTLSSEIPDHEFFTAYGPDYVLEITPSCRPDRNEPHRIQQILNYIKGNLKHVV

[3] = target: T4, Prostaglandin G/H synthase 1 (Ovis aries) (UniProt P05979); experiment: Inhibition of sheep COX1 at 10 uM using arachidonic acid as substrate preincubated for 15 mins followed by substrate addition for 2 mins by Cayman based fluorescence assay
T4 sequence (whole entry): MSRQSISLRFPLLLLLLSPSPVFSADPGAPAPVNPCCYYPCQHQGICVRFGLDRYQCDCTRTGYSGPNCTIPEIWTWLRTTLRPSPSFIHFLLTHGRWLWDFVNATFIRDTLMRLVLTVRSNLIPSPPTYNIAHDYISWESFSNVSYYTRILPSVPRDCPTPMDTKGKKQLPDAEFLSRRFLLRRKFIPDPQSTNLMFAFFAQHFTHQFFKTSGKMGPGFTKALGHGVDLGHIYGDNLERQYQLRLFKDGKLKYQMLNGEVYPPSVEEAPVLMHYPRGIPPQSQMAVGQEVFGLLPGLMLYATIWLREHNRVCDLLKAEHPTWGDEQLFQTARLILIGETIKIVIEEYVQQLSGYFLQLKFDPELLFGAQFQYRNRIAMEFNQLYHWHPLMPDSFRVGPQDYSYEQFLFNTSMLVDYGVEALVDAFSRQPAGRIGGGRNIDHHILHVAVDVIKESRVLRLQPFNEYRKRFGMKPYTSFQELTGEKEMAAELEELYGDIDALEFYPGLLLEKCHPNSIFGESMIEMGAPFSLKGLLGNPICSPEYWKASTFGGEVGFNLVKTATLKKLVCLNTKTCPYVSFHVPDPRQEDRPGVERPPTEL

[4] = target: T5, Prostaglandin G/H synthase 2 (Homo sapiens) (UniProt P35354); experiment: Inhibition of recombinant human COX2 at 10 uM using arachidonic acid as substrate preincubated for 15 mins followed by substrate addition for 2 mins by Cayman based fluorescence assay
T5 sequence (whole entry): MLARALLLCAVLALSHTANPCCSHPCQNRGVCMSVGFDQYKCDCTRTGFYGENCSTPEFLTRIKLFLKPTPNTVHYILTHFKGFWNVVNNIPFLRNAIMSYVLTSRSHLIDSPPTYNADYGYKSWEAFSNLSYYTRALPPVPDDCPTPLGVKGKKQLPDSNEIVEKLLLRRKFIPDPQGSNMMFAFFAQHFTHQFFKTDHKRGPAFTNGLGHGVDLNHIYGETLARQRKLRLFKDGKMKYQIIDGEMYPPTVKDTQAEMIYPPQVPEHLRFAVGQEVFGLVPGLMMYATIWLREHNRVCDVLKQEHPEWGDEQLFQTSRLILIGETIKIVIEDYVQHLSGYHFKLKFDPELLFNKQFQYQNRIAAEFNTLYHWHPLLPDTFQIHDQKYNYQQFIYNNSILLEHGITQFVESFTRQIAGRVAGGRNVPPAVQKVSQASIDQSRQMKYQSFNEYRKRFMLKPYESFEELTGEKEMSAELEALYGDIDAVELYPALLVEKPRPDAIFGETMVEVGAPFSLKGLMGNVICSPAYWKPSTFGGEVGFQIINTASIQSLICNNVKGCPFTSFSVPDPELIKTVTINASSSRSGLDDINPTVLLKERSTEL

[5] = Cytotoxicity against human MCF7 cells assessed as cell growth inhibition after 72 hrs by MTT assay; assay type: functional, cell-based; details: MCF7, 72 h
[6] = Cytotoxicity against human A549 cells assessed as cell growth inhibition after 72 hrs by MTT assay; assay type: functional, cell-based; details: A549, 72 h
[7] = Cytotoxicity against human LNCAP cells assessed as cell growth inhibition after 72 hrs by MTT assay; assay type: functional, cell-based
[8] = Cytotoxicity against human DU145 cells assessed as cell growth inhibition after 72 hrs by MTT assay; assay type: functional, cell-based; details: DU-145, 72 h
[9] = Cytotoxicity against African green monkey Vero cells assessed as cell growth inhibition after 72 hrs by MTT assay; assay type: toxicity, cell-based; details: African green monkey (Chlorocebus sabaeus)
[10] = Cytotoxicity against human HCT116 cells assessed as cell growth inhibition after 72 hrs by MTT assay; assay type: functional, cell-based; details: HCT-116, 72 h
Histone deacetylase 2 [11] = target: T1, Histone deacetylase 2; experiment: Inhibition of HDAC2 (unknown origin) at 10 uM after 24 hrs by SAMDI mass spectroscopic analysis
[12] = target: T6, Prostaglandin G/H synthase 2 (Homo sapiens, UniProt P35354); experiment: Inhibition of recombinant human COX2 using arachidonic acid as substrate preincubated for 15 mins followed by substrate addition for 2 mins by Cayman based fluorescence assay
T6 sequence (P35354 whole entry): T5 sequence (whole entry)

[13] = target: T7, Prostaglandin G/H synthase 1 (Ovis aries, UniProt P05979); experiment: Inhibition of sheep COX1 using arachidonic acid as substrate preincubated for 15 mins followed by substrate addition for 2 mins by Cayman based fluorescence assay
T7 sequence (P05979 whole entry): T4 sequence (whole entry)

[14] = Cytotoxicity against human HeLa cells assessed as cell growth inhibition after 72 hrs by MTT assay
LNCaP [15] = experiment: Induction of cell cycle arrest in human LNCAP cells assessed as accumulation at lesser G1 phase at 2.5 uM after 24 hrs by propidium iodide staining based FACS analysis (reference value: 1.59%); assay type: functional
LNCaP [16] = experiment: Induction of cell cycle arrest in human LNCAP cells assessed as accumulation at G1 phase at 2.5 uM after 24 hrs by propidium iodide staining based FACS analysis (reference value: 69.5%); assay type: functional
LNCaP [17] = experiment: Induction of cell cycle arrest in human LNCAP cells assessed as accumulation at S phase at 2.5 uM after 24 hrs by propidium iodide staining based FACS analysis (reference value: […]); assay type: functional
LNCaP [18] = experiment: Induction of cell cycle arrest in human LNCAP cells assessed as accumulation at G2 phase at 2.5 uM after 24 hrs by propidium iodide staining based FACS analysis (reference value: 1.08%); assay type: functional
LNCaP [19] = experiment: Induction of cell cycle arrest in human LNCAP cells assessed as accumulation at greater G2 phase at 2.5 uM after 24 hrs by propidium iodide staining based FACS analysis (reference value: 0.20%); assay type: functional

Histone deacetylase 1, sequence (Q13547 whole entry): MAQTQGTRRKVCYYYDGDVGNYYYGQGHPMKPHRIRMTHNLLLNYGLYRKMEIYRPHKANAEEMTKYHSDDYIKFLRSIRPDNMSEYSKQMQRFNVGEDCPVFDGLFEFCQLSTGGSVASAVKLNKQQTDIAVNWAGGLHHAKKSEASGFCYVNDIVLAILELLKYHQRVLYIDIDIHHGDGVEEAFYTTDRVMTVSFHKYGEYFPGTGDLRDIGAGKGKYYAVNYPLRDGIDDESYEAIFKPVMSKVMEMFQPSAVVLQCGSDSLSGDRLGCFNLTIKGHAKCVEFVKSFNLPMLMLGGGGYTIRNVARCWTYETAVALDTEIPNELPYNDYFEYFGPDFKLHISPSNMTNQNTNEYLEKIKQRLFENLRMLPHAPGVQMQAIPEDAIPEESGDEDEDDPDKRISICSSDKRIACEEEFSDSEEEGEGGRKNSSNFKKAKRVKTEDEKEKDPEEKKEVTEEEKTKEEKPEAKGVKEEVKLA
Histone deacetylase 3, sequence (O15379 whole entry): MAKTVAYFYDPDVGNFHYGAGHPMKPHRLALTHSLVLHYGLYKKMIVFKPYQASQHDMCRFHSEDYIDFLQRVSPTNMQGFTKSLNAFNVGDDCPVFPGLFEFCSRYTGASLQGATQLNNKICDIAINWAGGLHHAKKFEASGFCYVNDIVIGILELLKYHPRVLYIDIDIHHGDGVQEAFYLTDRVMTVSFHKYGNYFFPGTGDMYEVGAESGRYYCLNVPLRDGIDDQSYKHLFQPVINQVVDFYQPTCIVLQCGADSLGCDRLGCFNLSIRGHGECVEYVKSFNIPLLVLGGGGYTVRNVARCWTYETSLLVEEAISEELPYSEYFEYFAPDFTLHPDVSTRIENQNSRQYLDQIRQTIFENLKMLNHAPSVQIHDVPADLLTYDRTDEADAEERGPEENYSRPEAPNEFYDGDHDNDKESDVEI
T1 sequence (Q92769 whole entry): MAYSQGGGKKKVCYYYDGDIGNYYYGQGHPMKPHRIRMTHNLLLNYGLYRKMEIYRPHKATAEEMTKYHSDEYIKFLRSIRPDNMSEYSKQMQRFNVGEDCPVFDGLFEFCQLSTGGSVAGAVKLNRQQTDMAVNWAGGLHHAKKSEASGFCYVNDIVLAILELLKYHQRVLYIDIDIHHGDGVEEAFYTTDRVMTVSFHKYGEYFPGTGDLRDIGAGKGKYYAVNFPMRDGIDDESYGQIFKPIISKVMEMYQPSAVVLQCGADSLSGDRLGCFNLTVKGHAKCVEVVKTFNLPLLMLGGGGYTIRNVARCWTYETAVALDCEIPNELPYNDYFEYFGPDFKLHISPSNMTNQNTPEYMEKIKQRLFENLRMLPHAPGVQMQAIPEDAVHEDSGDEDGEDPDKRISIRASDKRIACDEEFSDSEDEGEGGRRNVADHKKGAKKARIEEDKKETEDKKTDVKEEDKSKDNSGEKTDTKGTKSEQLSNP

Row | SMILES | IC50 (Histone deacetylase 1) | IC50 (Histone deacetylase 2 [1]) | IC50 (Histone deacetylase 3) | IC50 [2] | IC50 (Histone deacetylase 8) | inhibition [3] | inhibition [4] | IC50 [5] | IC50 [6] | IC50 [7] | IC50 at 72 h [9] | IC50 [10] | other results
1 | Cc1ccc(-c2cc(C(F)(F)F)nn2-c2ccc(S(=O)(=O)NCCCCCCCC(=O)NO)cc2)cc1 | 968 nM | 929 nM | 256 nM | 61 nM | 989 nM | 26.1% | 95.6% | 4580 nM | 8150 nM | 2110 nM | 6610 nM |  | IC50 [8]: 10100 nM
2 | Cc1ccc(-c2cc(C(=O)NCCCCCCC(=O)NO)nn2-c2ccc(S(N)(=O)=O)cc2)cc1 | 208 nM | 294 nM | 333 nM | 83 nM | 520 nM | 26.4% | 71.1% | > 100000 nM | > 100000 nM | > 20000 nM | > 100000 nM | 25000 nM | 
3 | COc1ccc2c(c1)c(CC(=O)NCCCCCCCC(=O)NO)c(C)n2C(=O)c1ccc(Cl)cc1 | 1760 nM |  | 283 nM | 50 nM | 707 nM | 42.8% | 96.2% | 25100 nM |  | 6460 nM | 34700 nM | 24800 nM | inhibition (Histone deacetylase 2 [11]): 43%; IC50 [8]: > 20000 nM
4 | COC(=O)Cc1c(C)n(Cc2ccc(-c3cn(CCCCCC(=O)NO)nn3)cc2)c2ccc(OC)cc12 | 778 nM | 1360 nM | 224 nM | 6830 nM | 672 nM |  | 11.5% | 14200 nM |  | > 20000 nM | 37800 nM | 9310 nM | 
5 | COc1ccc2c(c1)c(CC(=O)NCCCCCC(=O)NO)c(C)n2C(=O)c1ccc(Cl)cc1 | 1810 nM |  | 722 nM | 49 nM | 345 nM | 40.2% | 95.1% | > 100000 nM | 31900 nM | > 20000 nM |  | 16100 nM | inhibition (Histone deacetylase 2 [11]): 41%
6 | COC(=O)Cc1c(C)n(Cc2ccc(-c3cn(CCCCCCCC(=O)NO)nn3)cc2)c2ccc(OC)cc12 | 251 nM | 209 nM | 181 nM | 5 nM | 394 nM | 7.08% | 78.2% |  |  | 1530 nM | 5730 nM | 1280 nM | IC50 [12]: 4580 nM; IC50 [13]: 12000 nM
7 | Cc1ccc(-c2cc(C(F)(F)F)nn2-c2ccc(S(=O)(=O)NCCCCCC(=O)NO)cc2)cc1 | 1870 nM | 2060 nM | 1020 nM | 76 nM | 226 nM | 16.2% | 97.7% | 7770 nM | 10400 nM | 8880 nM | 6830 nM | 8740 nM | 
8 | Cc1ccc(-c2cc(C(=O)NCCCCCC(=O)NO)nn2-c2ccc(S(N)(=O)=O)cc2)cc1 | 400 nM | 232 nM | 191 nM | 92 nM | 544 nM |  | 19.1% | > 100000 nM | > 100000 nM |  | > 100000 nM |  | 
9 | O=C(CCCCCCC(=O)Nc1ccccc1)NO [VORINOSTAT] |  |  |  |  |  |  |  |  |  |  | 1030 nM |  | IC50 [14]: 2120 nM; Activity (LNCaP [15]): -4.88%; Activity (LNCaP [16]): 85.6%; Activity (LNCaP [17]): 18.4%; Activity (LNCaP [18]): 0.69%; Activity (LNCaP [19]): 0.31%
10 | Cc1ccc(-c2cc(C(=O)NCCCCCCCC(=O)NO)nn2-c2ccc(S(N)(=O)=O)cc2)cc1 | 60 nM | 32 nM | 33 nM | 183 nM | 697 nM |  | 66.9% | 59500 nM | 34100 nM | > 20000 nM | 12100 nM | 7120 nM | 
